Molecules are shown by their SMILES.

Holding throughout (type): functional
The test system of test [1] is Saccharomyces cerevisiae. Description: DNA damaging activity against DNA repair-deficient delta RAD52 mutant yeast assessed as drug level required to produce 12 mm zone of inhibition assessed per 100 uL.
Test [2] relates to Saccharomyces cerevisiae. Description: DNA damaging activity against DNA repair-deficient delta RAD52/delta TOP1 mutant yeast assessed as drug level required to produce 12 mm zone of inhibition assessed per 100 uL.
Test [3] has as its system Saccharomyces cerevisiae. Nature of the test: DNA damaging activity against wild type yeast assessed as drug level required to produce 12 mm zone of inhibition assessed per 100 uL.

Consider `CC(C)[C@@H]1C[C@@H]2C(C)(NC(=O)NCCc3ccccc3)[C@H]3C[C@@H]1C[C@]2(C)C3` (stereo partly specified), for which the IC12 in the test on Saccharomyces cerevisiae [1] came to 45 µg; in the test on Saccharomyces cerevisiae [2] it was 12 µg; in the test with Saccharomyces cerevisiae [3] it was 14 µg.

As for `CC(C)[C@@H]1C[C@@H]2C(C)(NC=O)[C@H]3C[C@@H]1C[C@]2(C)C3` (stereo partly specified), the IC12 came out at 51 µg in the test with Saccharomyces cerevisiae [1], 4.8 µg with Saccharomyces cerevisiae [2] and 31 µg in the test with Saccharomyces cerevisiae [3].

The values are drawn from ChEMBL document CHEMBL1145718, “Two new nitrogenous sesquiterpenes from the sponge Axinyssa aplysinoides” (1997).
